Where “and” joins values, the source holds several entries; their conditions need not be identical. Equal entries are not always repeated.
Legend:
[1] = iontophoresis, rabbit eyes; cited from earlier work
[2] = Effect of current applied and duration of iontophoresis on drug cornea concentration (Experiment 6); type: in vivo, Albino rabbits; set-up: Gentimicin concentration in the cornea, Average: unit not given here
Excerpt: The purpose of this experiment was to determine the effect of the current applied and duration on the drug cornea concentration.

[3] = INT, drug incorporated in soft agar gel; cited from earlier work
[4] = INT via the cornea, aphakic rabbit eye; cited from earlier work
[5] = Release of gentamicin into the rabbit eye using hydrogel-probe iontophoresis (Example 5)
Protocol: Thirty six healthy rabbits (age 2-3 months, weight 2000 grams) were used. The study conformed with the ARVO Resolution of the Use of Animals in Research. The animals were anesthetized with intramuscular injections of ketamin HCl […] (Park Davis, Morris Plains, N.J.) and xylazine […] (Mobay, Shawnee, Kans.). Iontophoresis was carried out as follows: the distal end of the hydrogel-probe placed in a device as shown in FIG. 2 (diameter of 3 mm and 2 mm thick) was gently applied to the cornea of the rabbit while the anode of the iontophoretic system is inserted into the other end of the device and the cathode is attached to the ear of the animal.
A single concentration of 10 mg/ml gentamicin in the hydrogel-probe (dd) was studied, using two time periods of iontophoresis: long periods (60 seconds) and short periods (10 seconds). Six groups of rabbits, 6 animals per group, were treated with one of the treatments described in the following Table 1.
In group 3, one drop of topical gentamicin (14 mg/ml) was instilled into the eye every 5 minutes for 1 hour. In groups 4 and 5, mock iontophoresis was performed by placing a device containing 10 mg/ml of gentamicin on the cornea for 60 and 10 seconds without switching on the electric current. In group 6 iontophoresis was applied for 2 minutes with the dd containing NaCl 0.9% (instead of gentamicin).
Ten minutes after completion of the iontophoresis, or the control drug delivery technique in each animal, the surface of the eye was washed with 5 ml of NaCl 0.9%. The animals were sacrificed after 15 minutes by injecting an overdose of sodium pentobarbital. The entire cornea was excised with corneal scissors and rinsed again with 5 ml of NaCl 0.9%. The cornea was weighed, minced with a blade and placed into microcentrifuge tubes. To each tube, 0.5 ml 0.01 M phosphate buffered saline (pH 7.2) was added. The tubes were incubated for 18 hours in a water bath heated to 37° C., shaking at 100 oscillations/min. Thereafter the tubes were centrifuged for 10 min. at 2000 rpm. From each tube 125 microliter of the supernatant were assayed for gentamicin concentration using Abbot TDx. The concentration of gentamicin in the cornea was calculated as described before^(5). Gentamicin concentrations are expressed in micrograms per gram of tissue or per milliliter of buffer. 3 way ANOVA test was used for statistical evaluation.

[6] = monkey eye, cited from earlier work
[7] = system: experimentally induced keratitus; settings: experimentally induced keratitus in the rabbit eye; cited from earlier work
[8] = INT; cited from earlier work
[9] = Group 2: hydrogel probe 10 mg/ml gentamicin, 0.5 mA, 10 sec iontophoresis
[10] = Group 4: hydrogel probe 10 mg/ml gentamicin, 0.0 mA, 60 sec (mock iontophoresis)

Molecule: gentamicin
- concentrations in the vitreous [1]: high concentrations
- Gentimicin concentration in the cornea, Average ([2]; Group 1: hydrogel probe 10 mg/ml, 0.0 mA, 60 sec): 2.71 ± 2.0
- Gentimicin concentration in the cornea, Average ([2]; Group 2: hydrogel probe 10 mg/ml, 0.1 mA, 60 sec): 4.5 ± 3.5
- Gentimicin concentration in the cornea, Average ([2]; Group 3: hydrogel probe 10 mg/ml, 0.3 mA, 60 sec): 42.2 ± 27.1
- Gentimicin concentration in the cornea, Average ([2]; Group 4: hydrogel probe 10 mg/ml, 0.6 mA, 60 sec): 88.6 ± 38.6
- Gentimicin concentration in the cornea, Average ([2]; Group 5: hydrogel probe 10 mg/ml, 0.0 mA, 10 sec): 0.0
- Gentimicin concentration in the cornea, Average ([2]; Group 6: hydrogel probe 10 mg/ml, 0.1 mA, 10 sec): 4.0 ± 2.4
- Gentimicin concentration in the cornea, Average ([2]; Group 7: hydrogel probe 10 mg/ml, 0.3 mA, 10 sec): 10.2 ± 4.1
- Gentimicin concentration in the cornea, Average ([2]; Group 8: hydrogel probe 10 mg/ml, 0.6 mA, 10 sec): 22.0 ± 7.8
- Gentimicin concentration in the cornea, Average ([2]; Group 9: subconj. inj., 0.3% w/v, no current): 30 ± 18.6
- gentamicin concentrations in the intraocular fluid ([2]; Groups 3 and 4 (0.3 and 0.6 mA, 60 sec)): High gentamicin concentrations
- increase in drug concentration as compared with SC injections ([2]; current of 0.6 mAmp): 3 times
- increase in drug concentration over a non-current application (diffusion only) ([2]; current of 0.6 mAmp): about 30 times
- concentrations transferred into the rabbit cornea [3]: marked concentrations
- levels of gentamicin in the vitreous [4]: high levels
- Gentamicin concentration in cornea, Average ([5]; Group 1: hydrogel probe 10 mg/ml gentamicin, 0.5 mA, 60 sec iontophoresis): 33.1 ± 9.3 µg/g
- Gentamicin concentration in cornea, Average [5, 9]: 6.5 ± 0.8 µg/g
- Gentamicin concentration in cornea, single eyes (Eye No. 1-6) [5, 9]: 6.27 µg/g and 6.53 µg/g and 4.92 µg/g and 6.70 µg/g and 7.05 µg/g and 7.52 µg/g
- Gentamicin concentration in cornea, Average ([5]; Group 3: eye drops, one drop every 5 minutes for 1 hour, no current): 2.1 ± 1.0 µg/g
- Gentamicin concentration in cornea, Average [5, 10]: 2.6 ± 0.3 µg/g
- Gentamicin concentration in cornea, single eyes (Eye No. 1-6) [5, 10]: 2.01 µg/g and 2.55 µg/g and 2.78 µg/g and 2.89 µg/g and 2.70 µg/g and 2.96 µg/g
- Gentamicin concentration in cornea, Average ([5]; Group 5: hydrogel probe 10 mg/ml gentamicin, 0.0 mA, 10 sec (mock iontophoresis)): 1.1 ± 0.4 µg/g
- concentrations of gentamicin in the vitreous ([6]; transscleral INT using solutions, for several hours): bactericidal concentrations
- damage to the retina, repeated Electro Retino Graphia (ERG) tests ([6]; transscleral INT): did not show damage to the retina

Molecule: NC[C@H]1O[C@H](O[C@H]2[C@H](O)[C@@H](O[C@H]3O[C@H](CO)[C@@H](O)[C@H](N)[C@H]3O)[C@H](N)C[C@@H]2N)[C@H](N)C[C@@H]1O [tobramycin]
- efficacy of INT versus topical administration [7]: more effective than topical administration

Molecule: CC1(C)S[C@@H]2[C@H](NC(=O)[C@H](C(=O)O)c3ccsc3)C(=O)N2[C@H]1C(=O)O [ticarcillin]
- concentrations in the vitreous [1]: high concentrations

Molecule: CC(=O)N1CCN(c2ccc(OCC3COC(Cn4ccnc4)(c4ccc(Cl)cc4Cl)O3)cc2)CC1 (stereo not shown) [ketaconazole]
- penetration into the animals' anterior chamber [8]: increased the penetration

Molecule: Cc1nnc(SCC2=C(C(=O)O)N3C(=O)[C@@H](NC(=O)Cn4cnnn4)[C@H]3SC2)s1 [cefazoline]
- concentrations in the vitreous [1]: high concentrations

Reference: patent US6442423B1, “Device for iontophoretic administration of drugs” (Hadasit Medical Research Services & Development Limited, priority 1998, dated 2002)
